{"source": "patent US5820881A", "about": "“Microspheres of diamide-dicarboxylic acids” (Emisphere Technologies, Inc., priority 1995, dated 1998)", "format_in_all_cases": "physicochemical", "key": {"[1]": {"experiment": "Microsphere formation (Li2CO3 solution mixed with aqueous citric acid; microscopic examination)", "conditions": "for Microsphere formation / self-assembly: aqueous salt solution + citric acid; for Diameter of spheres: from 10 μm to submicrons, light microscopy", "procedure": "The bis-amide dicarboxylic acid prepared according to the method of Example 4 was dissolved in 0.1 mL of aqueous Li2 CO3 (0.1M) to yield a clear solution of the lithium salt in deionized water. 50 μL of the 0.1M solution was mixed with 50 μL of 1M aqueous citric acid and shaken. A white suspension was generated.\nThe method of Example 17 was followed, substituting the bis-amide dicarboxylic acid prepared according to the method of Example 5. A white suspension was generated.\nThe method of Example 17 was followed, substituting the bis-amide dicarboxylic acid prepared according to the method of Example 6. A white suspension was generated.\nThe method of Example 17 was followed, substituting the bis-amide dicarboxylic acid prepared according to the method of Example 15. A white suspension was generated."}, "[2]": {"experiment": "Concentration dependence of microsphere formation (turbidity, % transmittance at 600 nm)", "conditions": "for Concentration of amide above which a dense suspension (% T < 0.5) of microspheres is formed: 500 mM citric acid (pH 2.4)", "procedure": "A stock solution containing the lithium salt of the diamide prepared according to the method of Example 4 was prepared by stepwise addition of exactly two equivalents of a standardized solution of LiOH (stored under argon to prevent precipitation of lithium carbonate). The final concentration of the dilithium salt of the diamine was 100 mM, and the pH was always between 7.0 and 8.0. The solution was filtered through a 0.2 μm membrane prior to use. An appropriate amount of the 100 mM stock solution was diluted with deionized water to 500 μL. Microsphere formation was then initiated by addition of an equal volume of 1M citric acid, so that the final concentration ranged from 0 to 50 mM dilithium diamide in 500 mM citric acid with the pH below 2.5. Turbidity was assessed over this range of concentrations by measuring % transmittance at 600 nm. […]\n(§1) Each of the compounds of Examples 4-6 and 15 was evaluated by monitoring the change in the solution turbidity, while altering the pH at a fixed Phe amide concentration or by holding the pH constant and varying the concentration of the amide substrate. Each concentration dependence was determined in 500 mM citric acid from a plot of the solution transmittance (% T) vs. concentration. […] The influence of pH on solution turbidity was studied in solutions containing 50 mM in 500 mM lithium citrate buffers. The percent transmittance (% T) was <0.5% at pH 2.67 and >95% at pH 3.26. The pKas were determined by titration of each Phe amide substrate. As expected, the pKas of these Phe diamide diacids were all very similar."}, "[3]": {"experiment": "pH dependence of microsphere formation (turbidity, % transmittance at 600 nm)", "conditions": "for pH at which % T is > 95%: amide concentration 50 mM in 500 mM Li citrate", "procedure": "500 μL of 100 mM dilithium diamide solution prepared according to the method of Example 21 was mixed with an equal volume of one of a series of 1M lithium citrate buffers containing between 0 to 1 equivalent of lithium hydroxide so that the final measured pH of the mixture ranged from ca. 2.4 to 4.0. Turbidity was assessed over this pH range by measuring % transmittance at 600 nm.\nThe method of Example 25 was followed substituting the bis-amide dicarboxylic acid prepared according to the method of Example 5.\nThe method of Example 25 was followed substituting the bis-amide dicarboxylic acid prepared according to the method of Example 6.\nThe method of Example 25 was followed substituting the bis-amide dicarboxylic acid prepared according tot he method of Example 15.\nas §1"}, "[4]": {"experiment": "pKa determination by titration", "procedure": "as §1"}, "[5]": {"experiment": "SEM/TEM examination of microcapsules (tannic acid / OsO4 fixation)", "procedure": "The sodium salt of the bis-amide dicarboxylic acid of Example 6 was prepared. A white suspension was prepared by combining 100 μL of 0.43M citric acid and 50 μL of a 0.1M aqueous solution of the sodium salt of the diamide. The aqueous suspension was deposited on polylysine-coated glass coverslips and fixed with 2% OsO4 for 4 hours. The sample was washed with distilled water, air dried and sputter coated with gold. SEM photographs are illustrated in FIGS. 3a and 3b.\nA white suspension was also prepared by adding a solution containing 50 μL of a 0.86M citric acid and 50 μL of 3 wt. % tannic acid to 50 μL of a 100 mM aqueous solution of the sodium salt of the diamide. The pH was lowered from 7.7 to 2.4. The aqueous solution was deposited on a Nucleopore filter and fixed with 4% OsO4 for 4 hours. The sample was washed with distilled water and 95% EtOH and was air dried. The sample was dispersed in 100% LR white resin and polymerized in an oven at 60° C. TEM photographs are illustrated in FIG. 4.\nEstimates of the microcapsule shell thickness (150 nm) would require approximately 100 molecules of the diamide of Example 6 oriented end-to-end to traverse the microcapsule shell. However, a stacking of the bis amides seems more likely. A stacked array would allow for a greater number of assembled tetrapeptides to traverse the capsule shell. […] However, some tannic acid may be intercalated in the microsphere wall."}}, "note": "Entries after “also recorded” stand apart in the source; their conditions may differ. Where a name gives a salt, the structure may show the parent alone. Read-outs that look alike come from different tables or passages of the source.", "data": [{"compound": "O=C(CC(=O)N[C@@H](Cc1ccccc1)C(=O)O)N[C@@H](Cc1ccccc1)C(=O)O", "note": "[Example 4, bis(Nα-amido-L-phenylalanine) malonate]", "values": [{"measurement": "Microsphere formation / self-assembly", "setting": "[1]", "value": "formation of tiny spheres; also recorded: generated microcapsules"}, {"measurement": "Diameter of spheres", "setting": "[1]", "value": "≤ 10", "unit": "μm"}, {"measurement": "Concentration of amide above which a dense suspension (% T < 0.5) of microspheres is formed", "setting": "[2]", "value": 30000, "unit": "µM"}, {"measurement": "% transmittance, clear solution", "setting": "[2]; 500 mM citric acid, before transition at 30 mM, 600 nm", "value": "> 95", "unit": "% T"}, {"measurement": "% transmittance, dense suspension of microcapsules", "setting": "[2]; 500 mM citric acid, diamide above 30 mM, 600 nm", "value": 0.2, "unit": "% T"}, {"measurement": "Percent transmittance (% T) at pH 2.67", "setting": "[3]; 50 mM in 500 mM lithium citrate buffers, pH 2.67", "value": "< 0.5", "unit": "%"}, {"measurement": "Percent transmittance (% T) at pH 3.26", "setting": "[3]; 50 mM in 500 mM lithium citrate buffers, pH 3.26", "value": "> 95", "unit": "%"}, {"measurement": "pH at which % T is > 95%", "setting": "[3]", "value": 3.26}, {"measurement": "Estimated number of diamide molecules per one anionic species sufficient to abort assembly", "setting": "[3]; estimated from pKa and pH measurements", "value": "~30", "unit": "molecules"}, {"measurement": "pKa", "setting": "[4]; read-out: pKa1", "value": 3.67}, {"measurement": "pKa", "setting": "[4]; read-out: pKa2", "value": 4.7}]}, {"compound": "CC(C)(C(=O)N[C@@H](Cc1ccccc1)C(=O)O)C(=O)N[C@@H](Cc1ccccc1)C(=O)O", "note": "[Example 5, bis(Nα-amido-L-phenylalanine) 1,1-dimethyl malonate]", "values": [{"measurement": "Microsphere formation / self-assembly", "setting": "[1]", "value": "formation of tiny spheres"}, {"measurement": "Diameter of spheres", "setting": "[1]", "value": "≤ 10", "unit": "μm"}, {"measurement": "Concentration of amide above which a dense suspension (% T < 0.5) of microspheres is formed", "setting": "[2]", "value": 25000, "unit": "µM"}, {"measurement": "pH at which % T is > 95%", "setting": "[3]", "value": 3.26}, {"measurement": "pKa", "setting": "[4]; read-out: pKa1", "value": 3.55}, {"measurement": "pKa", "setting": "[4]; read-out: pKa2", "value": 4.62}]}, {"compound": "O=C(O)[C@H](Cc1ccccc1)NC(=O)C1(C(=O)N[C@@H](Cc2ccccc2)C(=O)O)CC1", "note": "[Example 6, bis(Nα-amido-L-phenylalanine) 1,1 -cyclopropane dicarboxylate]", "values": [{"measurement": "Microsphere formation / self-assembly", "setting": "[1]", "value": "formation of tiny spheres"}, {"measurement": "Diameter of spheres", "setting": "[1]", "value": "≤ 10", "unit": "μm"}, {"measurement": "Incorporation of tannic acid into the microsphere shell", "setting": "[5]", "value": "Little tannic acid was incorporated into the microsphere shell"}, {"measurement": "Molecules oriented end-to-end required to traverse the microcapsule shell", "setting": "[5]; shell thickness 150 nm", "value": "approximately 100 molecules"}, {"measurement": "Estimated microcapsule shell thickness", "setting": "[5]; sodium salt, citric acid + tannic acid, TEM", "value": "~150", "unit": "nm"}, {"measurement": "Concentration of amide above which a dense suspension (% T < 0.5) of microspheres is formed", "setting": "[2]", "value": 13000, "unit": "µM"}, {"measurement": "pH at which % T is > 95%", "setting": "[3]", "value": 3.26}, {"measurement": "pKa", "setting": "[4]; read-out: pKa1", "value": 3.53}, {"measurement": "pKa", "setting": "[4]; read-out: pKa2", "value": 4.5}]}, {"compound": "O=C(N[C@@H](Cc1ccccc1)C(=O)O)C(=O)N[C@@H](Cc1ccccc1)C(=O)O", "note": "[Example 8, bis(Nα-amido-L-phenylalanine) oxalate]", "values": [{"measurement": "Microsphere formation / self-assembly", "setting": "[1]", "value": "neither the oxalic derivative of Example 8 nor the succinic analogue of Example 12 did; also recorded: did not form microspheres"}]}, {"compound": "O=C(O)CCC(=O)N[C@@H](Cc1ccccc1)C(=O)O", "note": "[Example 11, (Nα-amido-L-phenylalanine) monosuccinate]", "values": [{"measurement": "Microsphere formation / self-assembly", "setting": "[1]", "value": "did not form microspheres"}]}, {"compound": "O=C(CCC(=O)N[C@@H](Cc1ccccc1)C(=O)O)N[C@@H](Cc1ccccc1)C(=O)O", "note": "[Example 12, bis(Nα-amido-L-phenylalanine) succinate]", "values": [{"measurement": "Microsphere formation / self-assembly", "setting": "[1]", "value": "neither the oxalic derivative of Example 8 nor the succinic analogue of Example 12 did; also recorded: does not self assemble; also recorded: did not form microspheres"}]}, {"compound": "O=C(/C=C\\C(=O)N[C@@H](Cc1ccccc1)C(=O)O)N[C@@H](Cc1ccccc1)C(=O)O", "note": "[Example 15, bis(Nα-amido-L-phenylalanine) maleate]", "values": [{"measurement": "Microsphere formation / self-assembly", "setting": "[1]", "value": "formation of tiny spheres; also recorded: generated microcapsules"}, {"measurement": "Diameter of spheres", "setting": "[1]", "value": "≤ 10", "unit": "μm"}, {"measurement": "Concentration of amide above which a dense suspension (% T < 0.5) of microspheres is formed", "setting": "[2]", "value": 23000, "unit": "µM"}, {"measurement": "pH at which % T is > 95%", "setting": "[3]", "value": 3.26}, {"measurement": "pKa", "setting": "[4]; read-out: pKa1", "value": 3.7}, {"measurement": "pKa", "setting": "[4]; read-out: pKa2", "value": 4.87}]}, {"compound": "O=C(/C=C/C(=O)N[C@@H](Cc1ccccc1)C(=O)O)N[C@@H](Cc1ccccc1)C(=O)O", "note": "[Example 16, bis(Nα-amido-L-phenylalanine) fumarate]", "values": [{"measurement": "Microsphere formation / self-assembly", "setting": "[1]", "value": "did not form microspheres"}]}]}
